Experimental data reported in ChEMBL document CHEMBL2157869, “N'-substituted-2'-O,3'-N-carbonimidoyl bridged macrolides: novel anti-inflammatory macrolides without antimicrobial activity” (J Med Chem, 2012).
In brackets after ≈: the same amount, converted by molar mass. Activity calls are given as the source filed them. The rule behind the calls is not given here.

How the values were obtained:
[1] = Antiinflammatory activity in mouse splenocytes assessed as inhibition of LPS-induced IL-6 production at 12 uM preincubated for 2 hrs prior to LPS challenge by sandwich ELISA; format: functional; details: Splenocyte
[2] = Antiinflammatory activity in mouse splenocytes assessed as inhibition of LPS-induced IL-6 production at 50 uM preincubated for 2 hrs prior to LPS challenge by sandwich ELISA; format: functional; details: Splenocyte
[3] = Cytotoxicity against human THP1 cells assessed as cell viability at 50 uM after 24 hrs by MTT assay; format: cell-based, THP-1; details: read-out: Activity
[4] = tested on: Mus musculus; assay: Antiinflammatory activity in BALB/cJ mouse assessed as inhibition of LPS-induced CXCL1 production in lung homogenates at 200 mg/kg, ip administered 2 hrs prior to LPS challenge; format: functional, organism-based; design: dose 200 mg/kg
[5] = Volume of distribution at steady state in Sprague-Dawley rat at 2 mg/kg, iv and 10 mg/kg, po; format: ADME, organism-based; details: in vivo, read-out: Vdss
[6] = biological target: T1, Cytochrome P450 3A4 (Homo sapiens, UniProt P08684)
Description: Inhibition of human recombinant CYP3A4 using 7-BQ as substrate preincubated for 5 to 10 mins before substrate addition

[7] = tested on: Mus musculus; assay: Antiinflammatory activity in BALB/cJ mouse assessed as inhibition of LPS-induced GM-CSF production in lung homogenates at 200 mg/kg, ip administered 2 hrs prior to LPS challenge; format: functional, organism-based; design: dose 200 mg/kg
[8] = Clearance in BALB/cJ mouse at 5 mg/kg, iv and 25 mg/kg, po; format: ADME, organism-based; details: in vivo
[9] = tested on: Mus musculus; assay: Antiinflammatory activity in BALB/cJ mouse assessed as inhibition of LPS-induced IL-6 production in lung homogenates at 200 mg/kg, ip administered 2 hrs prior to LPS challenge; format: functional, organism-based; design: dose 200 mg/kg
[10] = Volume of distribution at steady state in BALB/cJ mouse at 5 mg/kg, iv and 25 mg/kg, po; format: ADME, organism-based; details: in vivo, read-out: Vdss
[11] = tested on: Mus musculus; assay: Antiinflammatory activity in BALB/cJ mouse assessed as inhibition of LPS-induced TNFalpha level in lung homogenates at 200 mg/kg, ip administered 2 hrs prior to LPS challenge; format: functional, organism-based; design: dose 200 mg/kg
[12] = tested on: Mus musculus; assay: Antiinflammatory activity in ip dosed BALB/cJ mouse assessed as decrease in LPS-induced neutrophil number in bronchoalveolar lavage fluid administered 2 hrs prior to LPS challenge measured after 24 hrs post LPS challenge; format: functional, organism-based; details: Lung
[13] = tested on: Mus musculus; assay: Antiinflammatory activity in BALB/cJ mouse assessed as inhibition of LPS-induced IL-1beta production in lung homogenates at 200 mg/kg, ip administered 2 hrs prior to LPS challenge; format: functional, organism-based; design: dose 200 mg/kg
[14] = Clearance in Sprague-Dawley rat at 2 mg/kg, iv and 10 mg/kg, po; format: ADME, organism-based; details: in vivo
[15] = Half life in Sprague-Dawley rat at 2 mg/kg, iv and 10 mg/kg, po; format: ADME, organism-based; details: in vivo
[16] = tested on: Mus musculus; assay: Antiinflammatory activity in ip dosed BALB/cJ mouse assessed as decrease in LPS-induced total cell number in bronchoalveolar lavage fluid administered 2 hrs prior to LPS challenge measured after 24 hrs post LPS challenge; format: functional, organism-based; details: Lung
[17] = Oral bioavailability in BALB/cJ mouse at 25 mg/kg; format: ADME, organism-based; details: in vivo
[18] = biological target: T1, Cytochrome P450 3A4; remark: listed apart in the source
Description: Inhibition of human recombinant CYP3A4 using DEF as substrate preincubated for 5 to 10 mins before substrate addition

[19] = tested on: Mus musculus; assay: Antiinflammatory activity in BALB/cJ mouse assessed as inhibition of LPS-induced CCL2 production in lung homogenates at 200 mg/kg, ip administered 2 hrs prior to LPS challenge; format: functional, organism-based; design: dose 200 mg/kg
[20] = Antiinflammatory activity in mouse splenocytes assessed as inhibition of LPS-induced IL-6 production in mouse splenocytes at 25 uM preincubated for 2 hrs prior to LPS challenge by sandwich ELISA; format: functional; details: Splenocyte
[21] = Half life in BALB/cJ mouse at 5 mg/kg, iv and 25 mg/kg, po; format: ADME, organism-based; details: in vivo
[22] = Oral bioavailability in Sprague-Dawley rat at 10 mg/kg; format: ADME, organism-based; details: in vivo
[23] = tested on: Mus musculus; assay: Antiinflammatory activity in BALB/cJ mouse assessed as inhibition of LPS-induced CXCL2 production in lung homogenates at 200 mg/kg, ip administered 2 hrs prior to LPS challenge; format: functional, organism-based; design: dose 200 mg/kg
[24] = tested on: Streptococcus pyogenes; assay: Antibacterial activity against Streptococcus pyogenes ATCC 700294 by CLSI broth microdilution method; format: functional
[25] = tested on: Streptococcus pneumoniae; assay: Antibacterial activity against Streptococcus pneumoniae ATCC 49619 by CLSI broth microdilution method; format: functional
[26] = Cmax in lung cancer patient epithelial lining fluid at 2 gram, po qd; format: ADME, organism-based; design: route oral; details: human
[27] = tested on: Staphylococcus aureus; assay: Antibacterial activity against Staphylococcus aureus ATCC 13709 by CLSI broth microdilution method; format: functional
[28] = Cmax in lung cancer patient serum at 2 gram, po qd; format: ADME, organism-based; design: route oral; details: human
[29] = Cmax in cystic fibrosis patient blood at 500 mg; format: ADME, organism-based; design: dose 500 mg; details: human, whole blood
[30] = tested on: Mus musculus; assay: Antiinflammatory activity in BALB/cJ mouse assessed as decrease in LPS-induced total cell number in bronchoalveolar lavage fluid at 200 mg/kg, ip administered 2 hrs prior to LPS challenge measured after 24 hrs post LPS challenge; format: functional, organism-based; design: dose 200 mg/kg; details: Lung
[31] = tested on: Haemophilus influenzae; assay: Antibacterial activity against Haemophilus influenzae ATCC 49247 by CLSI broth microdilution method; format: functional
[32] = tested on: Moraxella catarrhalis; assay: Antibacterial activity against Moraxella catarrhalis ATCC 23246 by CLSI broth microdilution method; format: functional
[33] = tested on: Mus musculus; assay: Antiinflammatory activity in BALB/cJ mouse assessed as decrease in LPS-induced neutrophil number in bronchoalveolar lavage fluid at 200 mg/kg, ip administered 2 hrs prior to LPS challenge measured after 24 hrs post LPS challenge; format: functional, organism-based; design: dose 200 mg/kg; details: Lung
[34] = Cmax in cystic fibrosis patient plasma at 500 mg; format: ADME, organism-based; design: dose 500 mg; details: human
[35] = biological target: Transcription factor Jun (Mus musculus) (UniProt P05627); assay: Inhibition of AP1-mediated mediated IL-1beta production in LPS-induced mouse pulmonary neutrophila model
Chain of Transcription factor Jun (Mus musculus) (P05627 whole entry): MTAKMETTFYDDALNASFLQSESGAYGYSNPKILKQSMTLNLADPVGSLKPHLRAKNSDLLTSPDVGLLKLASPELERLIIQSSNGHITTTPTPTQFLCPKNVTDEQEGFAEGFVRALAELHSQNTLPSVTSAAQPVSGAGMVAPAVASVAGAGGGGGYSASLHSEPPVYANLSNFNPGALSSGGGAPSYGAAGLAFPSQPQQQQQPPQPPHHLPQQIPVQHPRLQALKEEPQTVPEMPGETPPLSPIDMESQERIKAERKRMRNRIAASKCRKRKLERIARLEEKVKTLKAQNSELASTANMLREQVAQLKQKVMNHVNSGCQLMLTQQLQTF

T1 sequence (P08684 whole entry): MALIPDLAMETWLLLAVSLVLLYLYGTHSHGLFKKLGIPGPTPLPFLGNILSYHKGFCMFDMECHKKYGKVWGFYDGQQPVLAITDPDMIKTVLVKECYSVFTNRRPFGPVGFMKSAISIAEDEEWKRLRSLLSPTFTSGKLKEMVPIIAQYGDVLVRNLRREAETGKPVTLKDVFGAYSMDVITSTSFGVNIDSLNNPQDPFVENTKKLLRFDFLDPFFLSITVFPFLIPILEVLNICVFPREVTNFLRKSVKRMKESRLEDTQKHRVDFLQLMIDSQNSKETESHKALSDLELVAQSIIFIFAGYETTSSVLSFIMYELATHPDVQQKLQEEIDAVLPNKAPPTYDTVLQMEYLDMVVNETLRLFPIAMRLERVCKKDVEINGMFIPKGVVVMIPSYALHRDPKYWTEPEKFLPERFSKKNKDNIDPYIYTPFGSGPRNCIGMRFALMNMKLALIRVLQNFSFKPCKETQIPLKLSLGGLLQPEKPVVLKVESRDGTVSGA

`CC[C@H]1OC(=O)[C@H](C)[C@@H](O[C@H]2C[C@@](C)(OC)[C@@H](O)[C@H](C)O2)[C@H](C)[C@@H](O[C@@H]2O[C@H](C)C[C@H]3[C@H]2O/C(=N\C(C)C)N3C)[C@](C)(O)C[C@@H](C)CN(C)[C@H](C)[C@@H](O)[C@]1(C)O` showed an inhibition at 12 µM [1] of 79%, an inhibition at 50 µM [2] of 95% and a viability at 24 h, 50 µM [3] of 9%. For the same molecule, the inhibition [4] was “Active”, the Vd [5] was 8.6 L/kg and the IC50 [6] was over 10 µM. For the same molecule, the inhibition [7] was “Active”, the clearance [8] was 19.8 mL/min/kg and the inhibition [9] was “Active”. For the same molecule, the Vd [10] was 23 L/kg, the inhibition [11] was “Active” and the Activity [12] was “Dose-dependent effect”. The inhibition [13] was “Active”, the clearance [14] was 12.3 mL/min/kg and the half-life [15] was 20.3 h. The Activity [16] was “Dose-dependent effect”, the bioavailability [17] was 62% and the IC50 [18] was 7.8 µM. For the same molecule, the inhibition [19] was “Active”, the inhibition at 25 µM [20] was 90% and the half-life [21] was 17.3 h. For the same molecule, the bioavailability [22] was 33%, the inhibition [23] was “Active” and the MIC [24] was over 64 µg/mL.

Molecule `CC[C@H]1OC(=O)[C@H](C)[C@@H](O[C@H]2C[C@@](C)(OC)[C@@H](O)[C@H](C)O2)[C@H](C)[C@@H](O[C@@H]2O[C@H](C)C[C@H](N(C)C)[C@H]2O)[C@](C)(O)C[C@@H](C)CN(C)[C@H](C)[C@@H](O)[C@]1(C)O` [AZITHROMYCIN] has an MIC [25] of under 0.125 µg/mL, an inhibition at 12 µM [1] of 61% and a Cmax [26] of 3200 ng/mL. For the same molecule, the inhibition at 50 µM [2] was 84%, the viability at 24 h, 50 µM [3] was 0% and the MIC [27] was 0.5 µg/mL (≈ 0.668 µM). For the same molecule, the Cmax [28] was 940 ng/mL, the Cmax [29] was 2010 ng/mL and the Activity [30] was “Active”. For the same molecule, the MIC [31] was 2 µg/mL (≈ 2.67 µM), the MIC [32] was under 0.125 µg/mL and the Activity [33] was “Active”. The inhibition at 25 µM [20] was 74%, the Cmax [34] was 670 ng/mL and the inhibition [35] was “Active”. For the same molecule, the MIC [24] was under 0.125 µg/mL.
